{"source": "patent US10364247B2", "about": "“Preparation and use of novel protein kinase inhibitors” (Ruijin Hospital Affiliated to Shanghai Jiao Tong University …, priority 2015, dated 2019)", "test_in_all_cases": "KINOMEscan competition binding", "key": {"[1]": {"target": "FAK (Homo sapiens, UniProt Q05397)", "details": "FAK (Entrez PTK2), read-out: Percent Control", "method_in_brief": "(§1)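 Read-out is % Ctrl (lower = stronger hit) from a single 10 μM primary screen in which the compound competes with an immobilized active-site ligand.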"}, "[2]": {"target": "ABL1(F317I)-phosphorylated (Homo sapiens, UniProt P00519, F317I)", "details": "read-out: Percent Control", "method_in_brief": "as §1"}, "[3]": {"target": "ABL1(F317I)-nonphosphorylated (Homo sapiens, UniProt P00519, F317I)", "details": "read-out: Percent Control", "method_in_brief": "as §1"}, "[4]": {"target": "ABL1(E255K)-phosphorylated (Homo sapiens, UniProt P00519, E255K)", "details": "read-out: Percent Control", "method_in_brief": "as §1"}, "[5]": {"target": "EPHA1 (Homo sapiens, UniProt P21709)", "details": "read-out: Percent Control", "method_in_brief": "as §1"}, "[6]": {"target": "T1, TRKC (Homo sapiens, UniProt Q16288)", "T1 construct": "purchased KINOMEscan (screening service)", "T1 sequence (Q16288 32-839)": "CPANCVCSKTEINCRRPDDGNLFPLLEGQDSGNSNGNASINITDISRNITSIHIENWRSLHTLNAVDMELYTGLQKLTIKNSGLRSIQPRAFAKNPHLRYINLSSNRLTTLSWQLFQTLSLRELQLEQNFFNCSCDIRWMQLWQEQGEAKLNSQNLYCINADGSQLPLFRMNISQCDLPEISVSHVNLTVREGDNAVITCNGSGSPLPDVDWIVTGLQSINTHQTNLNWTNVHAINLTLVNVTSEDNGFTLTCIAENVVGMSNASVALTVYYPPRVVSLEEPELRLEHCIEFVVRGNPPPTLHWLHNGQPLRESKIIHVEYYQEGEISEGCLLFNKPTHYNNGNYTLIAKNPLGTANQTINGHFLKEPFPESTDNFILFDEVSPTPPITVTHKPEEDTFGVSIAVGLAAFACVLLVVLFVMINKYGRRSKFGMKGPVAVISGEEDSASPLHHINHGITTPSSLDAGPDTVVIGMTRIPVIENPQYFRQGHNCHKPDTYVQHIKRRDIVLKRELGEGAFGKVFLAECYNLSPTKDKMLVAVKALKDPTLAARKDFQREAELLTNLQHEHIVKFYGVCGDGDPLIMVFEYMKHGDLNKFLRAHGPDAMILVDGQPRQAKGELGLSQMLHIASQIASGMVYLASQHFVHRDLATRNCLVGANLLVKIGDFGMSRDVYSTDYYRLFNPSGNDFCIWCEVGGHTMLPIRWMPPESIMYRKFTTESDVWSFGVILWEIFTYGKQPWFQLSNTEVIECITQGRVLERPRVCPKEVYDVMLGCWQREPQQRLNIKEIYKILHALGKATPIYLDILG", "details": "TRKC (Entrez NTRK3), read-out: Percent Control", "method_in_brief": "as §1"}, "[7]": {"target": "T2, CDC2L2 (Homo sapiens, UniProt Q9UQ88)", "T2 construct": "purchased KINOMEscan (screening platform)", "details": "read-out: Percent Control", "method_in_brief": "as §1"}, "[8]": {"target": "T3, BRAF(V600E) (Homo sapiens, UniProt P15056, V600E)", "T3 construct": "purchased KINOMEscan (panel service)", "details": "read-out: Percent Control", "method_in_brief": "as §1"}, "[9]": {"target": "T4, FGFR4 (Homo sapiens, UniProt P22455)", "T4 construct": "purchased KINOMEscan (screening platform)", "details": "read-out: Percent Control", "method_in_brief": "as §1"}, "[10]": {"target": "FES (Homo sapiens, UniProt P07332)", "sequence (P07332 whole entry)": "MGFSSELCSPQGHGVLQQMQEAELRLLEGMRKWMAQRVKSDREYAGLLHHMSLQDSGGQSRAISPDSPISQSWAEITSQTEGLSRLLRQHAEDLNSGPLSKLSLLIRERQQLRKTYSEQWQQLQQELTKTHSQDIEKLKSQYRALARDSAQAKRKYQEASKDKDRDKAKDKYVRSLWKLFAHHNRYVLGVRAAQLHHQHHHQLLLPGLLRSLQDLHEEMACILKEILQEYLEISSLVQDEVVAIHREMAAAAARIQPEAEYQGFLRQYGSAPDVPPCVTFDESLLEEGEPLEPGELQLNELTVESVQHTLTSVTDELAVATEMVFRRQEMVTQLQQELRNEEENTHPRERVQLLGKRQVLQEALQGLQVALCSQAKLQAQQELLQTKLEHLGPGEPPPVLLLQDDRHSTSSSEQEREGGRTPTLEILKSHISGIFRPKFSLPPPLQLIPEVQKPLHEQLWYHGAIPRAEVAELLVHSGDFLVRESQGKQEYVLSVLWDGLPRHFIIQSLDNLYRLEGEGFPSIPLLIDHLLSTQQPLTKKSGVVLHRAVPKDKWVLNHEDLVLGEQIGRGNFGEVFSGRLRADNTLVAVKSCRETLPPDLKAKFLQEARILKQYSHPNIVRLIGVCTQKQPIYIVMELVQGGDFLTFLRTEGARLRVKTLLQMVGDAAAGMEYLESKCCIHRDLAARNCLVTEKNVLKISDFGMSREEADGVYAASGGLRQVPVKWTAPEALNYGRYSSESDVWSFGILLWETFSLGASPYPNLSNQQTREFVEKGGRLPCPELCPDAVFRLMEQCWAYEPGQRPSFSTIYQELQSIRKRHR", "details": "read-out: Percent Control", "method_in_brief": "as §1"}, "[11]": {"target": "SYK (Homo sapiens, UniProt P43405)", "details": "read-out: Percent Control", "method_in_brief": "as §1"}, "[12]": {"target": "MEK4 (Homo sapiens, UniProt P45985)", "details": "MEK4 (Entrez MAP2K4), read-out: Percent Control", "method_in_brief": "as §1"}, "[13]": {"target": "ABL1(T315I)-phosphorylated (Homo sapiens, UniProt P00519, T315I)", "details": "read-out: Percent Control", "method_in_brief": "as §1"}, "[14]": {"target": "T5, PIP5K2C (Homo sapiens, UniProt Q8TBX8)", "T5 construct": "purchased KINOMEscan (screening service)", "details": "PIP5K2C (Entrez PIP4K2C), read-out: Percent Control", "method_in_brief": "as §1"}, "[15]": {"target": "T6, ABL1(Y253F)-phosphorylated (Homo sapiens, UniProt P00519, Y253F)", "T6 construct": "purchased KINOMEscan (panel service)", "details": "read-out: Percent Control", "method_in_brief": "as §1"}, "[16]": {"target": "T7, ABL2 (Homo sapiens, UniProt P42684)", "T7 construct": "purchased KINOMEscan (panel service)", "details": "read-out: Percent Control", "method_in_brief": "as §1"}, "[17]": {"target": "ZAK (Homo sapiens, UniProt Q9NYL2)", "details": "read-out: Percent Control", "method_in_brief": "as §1"}, "[18]": {"target": "T8, JAK1(JH1domain-catalytic) (Homo sapiens, UniProt P23458)", "T8 construct": "JAK1(JH1domain-catalytic)", "T8 sequence (P23458 875-1153 limits assumed)": "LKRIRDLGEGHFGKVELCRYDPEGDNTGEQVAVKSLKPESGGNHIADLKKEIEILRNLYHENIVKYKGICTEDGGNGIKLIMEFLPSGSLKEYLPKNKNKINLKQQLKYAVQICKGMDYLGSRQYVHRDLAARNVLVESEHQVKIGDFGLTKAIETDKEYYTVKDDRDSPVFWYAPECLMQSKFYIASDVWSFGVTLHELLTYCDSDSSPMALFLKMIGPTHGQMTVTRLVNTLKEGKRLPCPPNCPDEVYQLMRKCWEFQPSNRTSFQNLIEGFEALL", "details": "read-out: Percent Control", "method_in_brief": "as §1"}, "[19]": {"target": "ABL1(Q252H)-nonphosphorylated (Homo sapiens, UniProt P00519, Q252H)", "details": "read-out: Percent Control", "method_in_brief": "as §1"}, "[20]": {"target": "EPHB6 (Homo sapiens, UniProt O15197)", "details": "read-out: Percent Control", "method_in_brief": "as §1"}, "[21]": {"target": "ABL1(T315I)-nonphosphorylated (Homo sapiens, UniProt P00519, T315I)", "details": "read-out: Percent Control", "method_in_brief": "as §1"}, "[22]": {"target": "T9, EGFR(L858R) (Homo sapiens, UniProt P00533, L858R)", "T9 construct": "purchased KINOMEscan (panel service)", "details": "read-out: Percent Control", "method_in_brief": "as §1"}, "[23]": {"target": "T10, RET(V804L) (Homo sapiens, UniProt P07949, V804L)", "T10 construct": "purchased KINOMEscan (panel service)", "details": "read-out: Percent Control", "method_in_brief": "as §1"}, "[24]": {"target": "RIPK2 (Homo sapiens, UniProt O43353)", "details": "read-out: Percent Control", "method_in_brief": "as §1"}, "[25]": {"target": "MAP4K5 (Homo sapiens, UniProt Q9Y4K4)", "details": "read-out: Percent Control", "method_in_brief": "as §1"}, "[26]": {"target": "TEC (Homo sapiens, UniProt P42680)", "details": "read-out: Percent Control", "method_in_brief": "as §1"}, "[27]": {"target": "T11, RET(V804M) (Homo sapiens, UniProt P07949, V804M)", "T11 construct": "purchased KINOMEscan (panel service)", "details": "read-out: Percent Control", "method_in_brief": "as §1"}, "[28]": {"target": "T12, TXK (Homo sapiens, UniProt P42681)", "T12 construct": "purchased KINOMEscan (panel service)", "details": "read-out: Percent Control", "method_in_brief": "as §1"}, "[29]": {"target": "VEGFR2 (Homo sapiens, UniProt P35968)", "sequence (P35968 20-1356)": "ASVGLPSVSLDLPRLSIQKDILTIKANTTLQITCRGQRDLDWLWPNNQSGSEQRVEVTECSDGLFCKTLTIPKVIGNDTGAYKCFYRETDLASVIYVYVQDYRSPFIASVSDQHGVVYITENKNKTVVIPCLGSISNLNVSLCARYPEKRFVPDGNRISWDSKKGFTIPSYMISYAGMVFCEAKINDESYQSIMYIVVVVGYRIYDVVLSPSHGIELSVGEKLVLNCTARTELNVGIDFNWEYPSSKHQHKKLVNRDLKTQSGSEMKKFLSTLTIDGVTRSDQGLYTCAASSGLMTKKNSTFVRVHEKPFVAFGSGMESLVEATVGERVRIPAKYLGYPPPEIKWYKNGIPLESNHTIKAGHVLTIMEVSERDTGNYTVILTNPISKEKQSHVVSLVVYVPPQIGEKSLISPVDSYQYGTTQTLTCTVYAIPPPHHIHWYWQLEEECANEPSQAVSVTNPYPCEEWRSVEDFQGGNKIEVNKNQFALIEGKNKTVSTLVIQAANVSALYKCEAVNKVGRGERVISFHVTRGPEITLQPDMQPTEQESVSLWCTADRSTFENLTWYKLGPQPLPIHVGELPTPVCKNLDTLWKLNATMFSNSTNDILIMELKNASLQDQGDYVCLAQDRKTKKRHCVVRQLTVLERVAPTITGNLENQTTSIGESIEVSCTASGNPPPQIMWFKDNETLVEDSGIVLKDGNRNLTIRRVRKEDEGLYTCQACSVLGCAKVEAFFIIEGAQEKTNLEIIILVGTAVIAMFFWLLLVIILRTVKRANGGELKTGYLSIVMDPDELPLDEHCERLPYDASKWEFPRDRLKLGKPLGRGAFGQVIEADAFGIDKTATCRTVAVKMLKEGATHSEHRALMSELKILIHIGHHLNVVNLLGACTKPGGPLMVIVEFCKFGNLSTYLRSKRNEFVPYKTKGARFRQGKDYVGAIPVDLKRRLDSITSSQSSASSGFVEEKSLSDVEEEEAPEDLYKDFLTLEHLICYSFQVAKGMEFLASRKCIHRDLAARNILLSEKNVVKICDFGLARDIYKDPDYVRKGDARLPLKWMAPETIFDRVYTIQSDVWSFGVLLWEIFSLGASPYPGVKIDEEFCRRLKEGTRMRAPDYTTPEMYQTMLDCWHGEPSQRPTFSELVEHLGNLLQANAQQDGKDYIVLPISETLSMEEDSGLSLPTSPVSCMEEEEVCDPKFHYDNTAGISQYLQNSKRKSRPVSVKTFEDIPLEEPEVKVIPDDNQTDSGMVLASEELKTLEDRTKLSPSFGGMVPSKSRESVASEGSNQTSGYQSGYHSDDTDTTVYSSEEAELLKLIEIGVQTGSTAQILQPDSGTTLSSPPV", "details": "VEGFR2 (Entrez KDR), read-out: Percent Control", "method_in_brief": "as §1"}, "[30]": {"target": "HCK (Homo sapiens, UniProt P08631)", "sequence (P08631 whole entry)": "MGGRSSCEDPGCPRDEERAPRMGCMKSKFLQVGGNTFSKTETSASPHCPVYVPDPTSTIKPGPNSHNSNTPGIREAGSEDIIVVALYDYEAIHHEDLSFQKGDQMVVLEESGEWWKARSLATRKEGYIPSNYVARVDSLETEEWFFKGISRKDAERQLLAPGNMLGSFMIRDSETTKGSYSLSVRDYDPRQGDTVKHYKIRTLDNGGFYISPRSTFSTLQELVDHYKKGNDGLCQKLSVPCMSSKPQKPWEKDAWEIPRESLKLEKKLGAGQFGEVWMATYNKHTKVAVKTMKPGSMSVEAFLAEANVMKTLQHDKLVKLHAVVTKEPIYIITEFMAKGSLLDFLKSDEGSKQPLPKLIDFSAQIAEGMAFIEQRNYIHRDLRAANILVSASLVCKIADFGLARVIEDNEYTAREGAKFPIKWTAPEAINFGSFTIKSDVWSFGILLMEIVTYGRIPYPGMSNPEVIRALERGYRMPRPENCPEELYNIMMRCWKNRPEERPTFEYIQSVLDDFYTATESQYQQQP", "details": "read-out: Percent Control", "method_in_brief": "as §1"}, "[31]": {"target": "BRK (Homo sapiens, UniProt Q13882)", "sequence (Q13882 whole entry)": "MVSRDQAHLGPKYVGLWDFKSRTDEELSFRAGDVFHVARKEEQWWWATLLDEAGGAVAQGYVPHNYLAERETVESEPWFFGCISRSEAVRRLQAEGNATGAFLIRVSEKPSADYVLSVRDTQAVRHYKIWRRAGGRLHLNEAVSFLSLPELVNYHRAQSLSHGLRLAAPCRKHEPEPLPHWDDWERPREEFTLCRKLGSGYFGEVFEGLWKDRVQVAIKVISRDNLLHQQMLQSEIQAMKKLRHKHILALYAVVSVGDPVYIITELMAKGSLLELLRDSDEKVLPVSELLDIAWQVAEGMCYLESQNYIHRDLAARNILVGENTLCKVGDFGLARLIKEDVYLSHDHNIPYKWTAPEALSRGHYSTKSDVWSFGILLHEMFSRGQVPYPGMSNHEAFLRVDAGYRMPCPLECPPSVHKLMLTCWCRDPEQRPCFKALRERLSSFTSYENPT", "details": "BRK (Entrez PTK6), read-out: Percent Control", "method_in_brief": "as §1"}, "[32]": {"target": "MLK3 (Homo sapiens, UniProt Q16584)", "sequence (Q16584 whole entry)": "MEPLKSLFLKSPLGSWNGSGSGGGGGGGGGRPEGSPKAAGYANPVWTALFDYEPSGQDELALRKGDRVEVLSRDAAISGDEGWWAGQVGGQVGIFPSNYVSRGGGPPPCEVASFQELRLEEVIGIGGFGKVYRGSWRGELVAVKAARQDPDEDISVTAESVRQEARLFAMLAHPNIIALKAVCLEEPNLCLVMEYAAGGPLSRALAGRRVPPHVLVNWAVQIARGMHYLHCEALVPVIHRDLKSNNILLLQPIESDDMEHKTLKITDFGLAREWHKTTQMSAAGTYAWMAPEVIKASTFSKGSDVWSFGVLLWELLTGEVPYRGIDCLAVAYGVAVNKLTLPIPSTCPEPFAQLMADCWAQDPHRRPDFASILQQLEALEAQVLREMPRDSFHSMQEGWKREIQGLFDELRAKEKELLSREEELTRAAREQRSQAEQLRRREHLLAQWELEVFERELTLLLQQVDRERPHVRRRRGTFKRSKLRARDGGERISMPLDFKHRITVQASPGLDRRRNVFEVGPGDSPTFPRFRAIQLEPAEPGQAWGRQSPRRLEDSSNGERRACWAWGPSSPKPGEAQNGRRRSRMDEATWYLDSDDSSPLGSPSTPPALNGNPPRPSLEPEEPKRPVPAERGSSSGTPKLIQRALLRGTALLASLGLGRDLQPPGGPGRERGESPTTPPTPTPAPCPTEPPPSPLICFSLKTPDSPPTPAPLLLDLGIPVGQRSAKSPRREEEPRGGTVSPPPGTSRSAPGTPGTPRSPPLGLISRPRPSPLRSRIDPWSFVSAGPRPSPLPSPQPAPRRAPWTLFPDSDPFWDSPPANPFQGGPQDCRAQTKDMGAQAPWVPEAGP", "details": "MLK3 (Entrez MAP3K11), read-out: Percent Control", "method_in_brief": "as §1"}, "[33]": {"target": "EPHA2 (Homo sapiens, UniProt P29317)", "details": "read-out: Percent Control", "method_in_brief": "as §1"}, "[34]": {"target": "T13, EGFR(L858R, T790M) (Homo sapiens, UniProt P00533, L858R/T790M)", "T13 construct": "purchased KINOMEscan (screening platform)", "details": "read-out: Percent Control", "method_in_brief": "as §1"}, "[35]": {"target": "MLK1 (Homo sapiens, UniProt P80192)", "details": "MLK1 (Entrez MAP3K9), read-out: Percent Control", "method_in_brief": "as §1"}}, "data": [{"compound": "Cc1ccc(Nc2ncc3c(n2)N(C)CN(c2cc(NC(=O)c4cccc(C(F)(F)F)c4)ccc2C)C3)cn1", "note": "[IA-9, N-(4-methyl-3-(1-methyl-7-((6-methylpyridin-3-yl)amino)-1,4-dihydropyrimido[4,5-d]pyrimidin-3(2H)-yl)phenyl)-3-(trifluoromethyl)benzamide]", "values": [{"measurement": "remaining binding at 10 µM", "setting": "[1]", "value": 6.6, "unit": "%"}, {"measurement": "remaining binding at 10 µM", "setting": "[2]", "value": 4.1, "unit": "%"}, {"measurement": "remaining binding at 10 µM", "setting": "[3]", "value": 0, "unit": "%"}, {"measurement": "remaining binding at 10 µM", "setting": "[4]", "value": 1.2, "unit": "%"}, {"measurement": "remaining binding at 10 µM", "setting": "[5]", "value": 0.35, "unit": "%"}, {"measurement": "remaining binding at 10 µM", "setting": "[6]", "value": 7.2, "unit": "%"}, {"measurement": "remaining binding at 10 µM", "setting": "[7]", "value": 28, "unit": "%"}, {"measurement": "remaining binding at 10 µM", "setting": "[8]", "value": 0.1, "unit": "%"}, {"measurement": "remaining binding at 10 µM", "setting": "[9]", "value": 25, "unit": "%"}, {"measurement": "remaining binding at 10 µM", "setting": "[10]", "value": 0.7, "unit": "%"}, {"measurement": "remaining binding at 10 µM", "setting": "[11]", "value": 4.4, "unit": "%"}, {"measurement": "remaining binding at 10 µM", "setting": "[12]", "value": 2, "unit": "%"}, {"measurement": "remaining binding at 10 µM", "setting": "[13]", "value": 4.1, "unit": "%"}, {"measurement": "remaining binding at 10 µM", "setting": "[14]", "value": 19, "unit": "%"}, {"measurement": "remaining binding at 10 µM", "setting": "[15]", "value": 0.15, "unit": "%"}, {"measurement": "remaining binding at 10 µM", "setting": "[16]", "value": 0.1, "unit": "%"}, {"measurement": "remaining binding at 10 µM", "setting": "[17]", "value": 0.55, "unit": "%"}, {"measurement": "remaining binding at 10 µM", "setting": "[18]", "value": 2, "unit": "%"}, {"measurement": "remaining binding at 10 µM", "setting": "[19]", "value": 0.75, "unit": "%"}, {"measurement": "remaining binding at 10 µM", "setting": "[20]", "value": 0.3, "unit": "%"}, {"measurement": "remaining binding at 10 µM", "setting": "[21]", "value": 0, "unit": "%"}, {"measurement": "remaining binding at 10 µM", "setting": "[22]", "value": 0.05, "unit": "%"}, {"measurement": "remaining binding at 10 µM", "setting": "[23]", "value": 0, "unit": "%"}, {"measurement": "remaining binding at 10 µM", "setting": "[24]", "value": 6, "unit": "%"}, {"measurement": "remaining binding at 10 µM", "setting": "[25]", "value": 2.5, "unit": "%"}, {"measurement": "remaining binding at 10 µM", "setting": "[26]", "value": 0.55, "unit": "%"}, {"measurement": "remaining binding at 10 µM", "setting": "[27]", "value": 0, "unit": "%"}, {"measurement": "remaining binding at 10 µM", "setting": "[28]", "value": 0, "unit": "%"}, {"measurement": "remaining binding at 10 µM", "setting": "[29]", "value": 2, "unit": "%"}, {"measurement": "remaining binding at 10 µM", "setting": "[30]", "value": 0.55, "unit": "%"}, {"measurement": "remaining binding at 10 µM", "setting": "[31]", "value": 0.9, "unit": "%"}, {"measurement": "remaining binding at 10 µM", "setting": "[32]", "value": 5.8, "unit": "%"}, {"measurement": "remaining binding at 10 µM", "setting": "[33]", "value": 0.2, "unit": "%"}, {"measurement": "remaining binding at 10 µM", "setting": "[34]", "value": 24, "unit": "%"}, {"measurement": "remaining binding at 10 µM", "setting": "[35]", "value": 5.7, "unit": "%"}]}]}
